# Test results from PubChem BioAssay (NCI).
#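 The concentration for 50% growth inhibition is given as GI50. Definition used: TGI = concentration required for complete inhibition of growth.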
# Tests used:
# Assay in all cases: DTP human tumour cell line panel, 384-well format
# A498 renal = test system: A498 renal
# OVCAR-4 ovarian = test system: OVCAR-4 ovarian
# BT-549 breast = test system: BT-549 breast
# KM12 colon = test system: KM12 colon
# UACC-257 melanoma = test system: UACC-257 melanoma
# M14 melanoma = test system: M14 melanoma
# RPMI-8226 leukemia = test system: RPMI-8226 leukemia
# HOP-92 NSCLC = test system: HOP-92 NSCLC
# SF-539 CNS = test system: SF-539 CNS
# SNB-19 CNS = test system: SNB-19 CNS
# U251 glioblastoma = test system: U251 glioblastoma
# CAKI-1 renal = test system: CAKI-1 renal
# ACHN renal = test system: ACHN renal
# LOX IMVI melanoma = test system: LOX IMVI melanoma
# HCT-15 colon = test system: HCT-15 colon
# 786-0 renal = test system: 786-0 renal
# SK-MEL-28 melanoma = test system: SK-MEL-28 melanoma
# K-562 leukemia = test system: K-562 leukemia
# SF-295 CNS = test system: SF-295 CNS
# CCRF-CEM leukemia = test system: CCRF-CEM leukemia
# PC-3 prostate = test system: PC-3 prostate
# OVCAR-8 ovarian = test system: OVCAR-8 ovarian
# HCC-2998 colon = test system: HCC-2998 colon
# SNB-75 CNS = test system: SNB-75 CNS
# T-47D breast = test system: T-47D breast
# NCI-H226 lung = test system: NCI-H226 lung
# MDA-MB-435 melanoma = test system: MDA-MB-435 melanoma
# SN12C renal = test system: SN12C renal
# RXF 393 renal = test system: RXF 393 renal
# NCI-H23 lung = test system: NCI-H23 lung
# HS 578T breast = test system: HS 578T breast
# SK-MEL-2 melanoma = test system: SK-MEL-2 melanoma
# MALME-3M melanoma = test system: MALME-3M melanoma
# OVCAR-5 ovarian = test system: OVCAR-5 ovarian
# UO-31 renal = test system: UO-31 renal
# MOLT-4 leukemia = test system: MOLT-4 leukemia
# COLO 205 colon = test system: COLO 205 colon
# MCF7 breast = test system: MCF7 breast
# HCT-116 colon = test system: HCT-116 colon
# OVCAR-3 ovarian = test system: OVCAR-3 ovarian
# SW-620 colon = test system: SW-620 colon
# TK-10 renal = test system: TK-10 renal
# EKVX NSCLC = test system: EKVX NSCLC
# HOP-62 NSCLC = test system: HOP-62 NSCLC
# MDA-MB-468 breast = test system: MDA-MB-468 breast
# SF-268 CNS = test system: SF-268 CNS
# NCI/ADR-RES ovarian = test system: NCI/ADR-RES ovarian
structure (smiles),measurement,setting,value
Cc1[nH]nc2ncc(C(=O)N3CCC[C@H]3c3ccc(Cl)cc3)cc12,GI50,A498 renal,39 µM
same,TGI,A498 renal,> 100 µM
same,GI50,OVCAR-4 ovarian,> 100 µM
same,TGI,OVCAR-4 ovarian,> 100 µM
same,GI50,BT-549 breast,57.7 µM
same,TGI,BT-549 breast,> 100 µM
same,GI50,KM12 colon,31.5 µM
same,TGI,KM12 colon,> 85.1 µM
same,GI50,UACC-257 melanoma,> 100 µM
same,TGI,UACC-257 melanoma,> 100 µM
same,GI50,M14 melanoma,> 100 µM
same,TGI,M14 melanoma,> 100 µM
same,GI50,RPMI-8226 leukemia,54.5 µM
same,TGI,RPMI-8226 leukemia,> 100 µM
same,GI50,HOP-92 NSCLC,> 55.6 µM
same,TGI,HOP-92 NSCLC,> 89.7 µM
same,GI50,SF-539 CNS,> 91.4 µM
same,TGI,SF-539 CNS,> 100 µM
same,GI50,SNB-19 CNS,> 100 µM
same,TGI,SNB-19 CNS,> 100 µM
same,GI50,U251 glioblastoma,51.7 µM
same,TGI,U251 glioblastoma,> 100 µM
same,GI50,CAKI-1 renal,> 100 µM
same,TGI,CAKI-1 renal,> 100 µM
same,GI50,ACHN renal,22.1 µM
same,TGI,ACHN renal,62 µM
same,GI50,LOX IMVI melanoma,60.6 µM
same,TGI,LOX IMVI melanoma,> 100 µM
same,GI50,HCT-15 colon,> 78.6 µM
same,TGI,HCT-15 colon,> 100 µM
same,GI50,786-0 renal,52.8 µM
same,TGI,786-0 renal,> 100 µM
same,GI50,SK-MEL-28 melanoma,> 100 µM
same,TGI,SK-MEL-28 melanoma,> 100 µM
same,GI50,K-562 leukemia,20.9 µM
same,TGI,K-562 leukemia,44.1 µM
same,GI50,SF-295 CNS,55.2 µM
same,TGI,SF-295 CNS,> 100 µM
same,GI50,CCRF-CEM leukemia,15.6 µM
same,TGI,CCRF-CEM leukemia,30.6 µM
same,GI50,PC-3 prostate,48.9 µM
same,TGI,PC-3 prostate,> 100 µM
same,GI50,OVCAR-8 ovarian,> 100 µM
same,TGI,OVCAR-8 ovarian,> 100 µM
same,GI50,HCC-2998 colon,32.3 µM
same,TGI,HCC-2998 colon,> 100 µM
same,GI50,SNB-75 CNS,> 78.1 µM
same,TGI,SNB-75 CNS,> 100 µM
same,GI50,T-47D breast,68.2 µM
same,TGI,T-47D breast,> 100 µM
same,GI50,NCI-H226 lung,39.1 µM
same,TGI,NCI-H226 lung,> 100 µM
same,GI50,MDA-MB-435 melanoma,> 100 µM
same,TGI,MDA-MB-435 melanoma,> 100 µM
same,GI50,SN12C renal,> 100 µM
same,TGI,SN12C renal,> 100 µM
same,GI50,RXF 393 renal,19.7 µM
same,TGI,RXF 393 renal,46.7 µM
same,GI50,NCI-H23 lung,36.6 µM
same,TGI,NCI-H23 lung,> 100 µM
same,GI50,HS 578T breast,41.4 µM
same,TGI,HS 578T breast,> 100 µM
same,GI50,SK-MEL-2 melanoma,25.3 µM
same,TGI,SK-MEL-2 melanoma,77.5 µM
same,GI50,MALME-3M melanoma,> 100 µM
same,TGI,MALME-3M melanoma,> 100 µM
same,GI50,OVCAR-5 ovarian,> 100 µM
same,TGI,OVCAR-5 ovarian,> 100 µM
same,GI50,UO-31 renal,46.6 µM
same,TGI,UO-31 renal,> 100 µM
same,GI50,MOLT-4 leukemia,25.5 µM
same,TGI,MOLT-4 leukemia,> 72.7 µM
same,GI50,COLO 205 colon,33.6 µM
same,TGI,COLO 205 colon,83.4 µM
same,GI50,MCF7 breast,31.8 µM
same,TGI,MCF7 breast,> 100 µM
same,GI50,HCT-116 colon,37.2 µM
same,TGI,HCT-116 colon,> 100 µM
same,GI50,OVCAR-3 ovarian,26.1 µM
same,TGI,OVCAR-3 ovarian,99.8 µM
same,GI50,SW-620 colon,30.9 µM
same,TGI,SW-620 colon,> 79.6 µM
same,GI50,TK-10 renal,80.6 µM
same,TGI,TK-10 renal,> 100 µM
same,GI50,EKVX NSCLC,> 100 µM
same,TGI,EKVX NSCLC,> 100 µM
same,GI50,HOP-62 NSCLC,> 54.9 µM
same,TGI,HOP-62 NSCLC,> 100 µM
same,GI50,MDA-MB-468 breast,21.2 µM
same,TGI,MDA-MB-468 breast,68.5 µM
same,GI50,SF-268 CNS,> 100 µM
same,TGI,SF-268 CNS,> 100 µM
same,GI50,NCI/ADR-RES ovarian,30.8 µM
same,TGI,NCI/ADR-RES ovarian,> 100 µM
